Results from patent US20240082194A1, “PREVENTIVE OR THERAPEUTIC AGENT FOR INFLAMMATORY DISORDERS AND/OR PAIN DISORDERS” (Kyowa Pharma Chemical Co., Ltd., priority 2021, published 2024).
Several values for one entry are separate records, joined by “and”; a condition that tells them apart may be missing. Equal values may be shown once.

System: adjuvant arthritis model rats
Test: Rat adjuvant arthritis model: left hind limb (non-sensitized limb) volume
Assay type: in vivo, rat (male LEW rats)
Conditions: for Left hind limb volume, Mean: group mean n=5; for Left hind limb volume: individual animals
Procedure: Required amounts of GSSSG and indomethacin were weighed with an electronic balance, each ground well with a mortar, added to a solvent (0.5% methyl cellulose (MC) suspension), and suspended. The administration solution of GSSSG alone was prepared to have a concentration of 21.2 mg/mL (20 mg/mL on an anhydrous basis), and the administration solution of indomethacin alone was prepared to have a concentration of 0.06 mg/mL or 0.6 mg/mL. A combined administration solution was prepared by mixing a suspension prepared with GSSSG at 42.4 mg/mL (40 mg/mL on an anhydrous basis) with 0.12 mg/mL and 1.2 mg/mL indomethacin suspensions in equal amounts. The administration solution was prepared for 2 weeks at a time and stored under refrigeration and light shielding conditions until administration.
An appropriate amount of killed Mycobacterium tuberculosis (M. Tuberculosis H37Ra; BD) was ground in a mortar, and liquid paraffin was added thereto to prepare an adjuvant to 5 mg/mL. As experimental animals, 6-week-old male LEW rats were used. General condition observation and weight measurement were carried out upon arrival, and the presence or absence of abnormalities was confirmed.
The acclimation period was set to 7 days, and the general condition was observed once a day. On the last day of the acclimation period, left hind limb volume and body weight were measured to confirm that there were no abnormalities in body weight and general condition, and the animals were then used for a test.
On the last day of the acclimation period, the rats were sensitized with 50 μL of the prepared adjuvant under isoflurane inhalation anesthesia under the skin of the right hind limb plantar. In grouping, the rats were assigned to 6 groups (n=5) to ensure equal left hind limb volume and body weight.
The administration solution of indomethacin alone, the administration solution of GSSSG alone, and the combined administration solution were forcibly orally administered at a volume of 5 mL/kg for 14 days from the day of grouping. The dose was calculated based on the most recent body weight. The volume of the left hind limb (non-sensitized limb) was measured using a rat hind limb plantar edema volume measurement device (TK-101P; Natsume Seisakusho Co., Ltd.) on the last day of the acclimation period, the day of grouping, and twice a week after the day of grouping. The measurement was performed 5 times per rat per day, and an average value of 3 times excluding the highest and lowest values was taken as the volume.

[1] = GSSSG 100 mg/kg/day oral, day 0 (before sensitization)
[2] = GSSSG 100 mg/kg/day oral, day 9 (day of grouping, start of dosing)
[3] = GSSSG 100 mg/kg/day oral, day 13
[4] = GSSSG 100 mg/kg/day oral, day 16
[5] = GSSSG 100 mg/kg/day oral, day 20
[6] = GSSSG 100 mg/kg/day oral, day 23
[7] = Indomethacin 0.3 mg/kg/day oral, day 0 (before sensitization)
[8] = Indomethacin 0.3 mg/kg/day oral, day 9 (day of grouping, start of dosing)
[9] = Indomethacin 0.3 mg/kg/day oral, day 13
[10] = Indomethacin 0.3 mg/kg/day oral, day 16
[11] = Indomethacin 0.3 mg/kg/day oral, day 20
[12] = Indomethacin 0.3 mg/kg/day oral, day 23
[13] = Indomethacin 3 mg/kg/day oral, day 0 (before sensitization)
[14] = Indomethacin 3 mg/kg/day oral, day 9 (day of grouping, start of dosing)
[15] = Indomethacin 3 mg/kg/day oral, day 13
[16] = Indomethacin 3 mg/kg/day oral, day 16
[17] = Indomethacin 3 mg/kg/day oral, day 20
[18] = Indomethacin 3 mg/kg/day oral, day 23

## N[C@@H](CCC(=O)N[C@@H](CSSSC[C@H](NC(=O)CC[C@H](N)C(=O)O)C(=O)NCC(=O)O)C(=O)NCC(=O)O)C(=O)O [GSSSG, glutathione trisulfide]
[1]
  Left hind limb volume, Mean: 1.31 mL
  Left hind limb volume: 1.21 mL and 1.39 mL (2×) and 1.29 mL (2×)
[2]
  Left hind limb volume, Mean: 1.49 mL
  Left hind limb volume: 1.29 mL and 1.52 mL and 1.58 mL (2×) and 1.51 mL
[3]
  Left hind limb volume, Mean: 1.99 mL
  Left hind limb volume: 1.45 mL and 2.35 mL and 2.08 mL and 2.06 mL and 2.00 mL
[4]
  Left hind limb volume, Mean: 2.26 mL
  Left hind limb volume: 1.41 mL and 2.64 mL (2×) and 2.28 mL and 2.35 mL
[5]
  Left hind limb volume, Mean: 2.39 mL
  Left hind limb volume: 1.72 mL and 2.82 mL and 2.58 mL and 2.53 mL and 2.31 mL
[6]
  Left hind limb volume, Mean: 2.54 mL
  Left hind limb volume: 1.67 mL and 3.22 mL and 2.77 mL and 2.69 mL and 2.34 mL
GSSSG alone administration group (100 mg/kg oral, 14 days)
  anti-inflammatory effect: no anti-inflammatory effect was observed

## COc1ccc2c(c1)c(CC(=O)O)c(C)n2C(=O)c1ccc(Cl)cc1 [Indomethacin, indomethacin]
[7]
  Left hind limb volume, Mean: 1.32 mL
  Left hind limb volume: 1.39 mL and 1.24 mL and 1.37 mL and 1.30 mL and 1.29 mL
[8]
  Left hind limb volume, Mean: 1.63 mL
  Left hind limb volume: 1.47 mL and 1.41 mL and 1.74 mL (2×) and 1.79 mL
[9]
  Left hind limb volume, Mean: 1.90 mL
  Left hind limb volume: 1.78 mL and 1.59 mL and 2.17 mL and 1.98 mL and 1.99 mL
[10]
  Left hind limb volume, Mean: 1.88 mL
  Left hind limb volume: 1.74 mL and 1.62 mL and 2.19 mL and 1.95 mL and 1.91 mL
[11]
  Left hind limb volume, Mean: 1.92 mL
  Left hind limb volume: 1.71 mL and 1.60 mL and 2.09 mL and 2.06 mL and 2.12 mL
[12]
  Left hind limb volume, Mean: 1.94 mL
  Left hind limb volume: 1.69 mL and 1.65 mL and 1.98 mL and 2.20 mL and 2.18 mL
[13]
  Left hind limb volume, Mean: 1.33 mL
  Left hind limb volume: 1.17 mL and 1.40 mL and 1.37 mL and 1.32 mL and 1.38 mL
[14]
  Left hind limb volume, Mean: 1.52 mL
  Left hind limb volume: 1.36 mL and 1.49 mL (2×) and 1.71 mL and 1.55 mL
[15]
  Left hind limb volume, Mean: 1.63 mL
  Left hind limb volume: 1.39 mL and 1.68 mL (2×) and 1.69 mL (2×)
[16]
  Left hind limb volume, Mean: 1.55 mL
  Left hind limb volume: 1.36 mL and 1.60 mL (2×) and 1.58 mL and 1.62 mL
[17]
  Left hind limb volume, Mean: 1.52 mL
  Left hind limb volume: 1.32 mL and 1.60 mL and 1.61 mL and 1.51 mL and 1.59 mL
[18]
  Left hind limb volume, Mean: 1.54 mL
  Left hind limb volume: 1.33 mL and 1.56 mL and 1.61 mL and 1.58 mL and 1.62 mL
